Test results reported in ChEMBL document CHEMBL1201861, “Genomics of Drug Sensitity in Cancer screening data, Wellcome Trust Sanger Institute”.
pIC50: −log10 of the molar value.

Tests used:
Test in all cases: cells
NCI-H596 = type: functional, cell-based, Homo sapiens; conditions: Homo sapiens, NCI-H596;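 further: growth inhibition of NCI-H596 cells, read out with a cell viability assay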
Description: SANGER: Inhibition of human NCI-H596 cell growth in a cell viability assay.

KYSE-510 = type: functional, cell-based, Homo sapiens; conditions: Homo sapiens, KYSE-510;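 further: cell viability readout used to measure how strongly growth of the cell line is suppressed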
Description: SANGER: Inhibition of human KYSE-510 cell growth in a cell viability assay.

NCI-H2030 = type: functional, cell-based, Homo sapiens; conditions: Homo sapiens, NCI-H2030;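 further: growth inhibition of human NCI-H2030 cells, read out by a cell viability assay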
Description: SANGER: Inhibition of human NCI-H2030 cell growth in a cell viability assay.

Panc1005 = type: functional, cell-based, Homo sapiens; conditions: Homo sapiens, Panc1005;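 further: growth inhibition of human PANC-10-05 cells, measured by a cell viability assay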
Description: SANGER: Inhibition of human PANC-10-05 cell growth in a cell viability assay.

MDA-MB-157 = type: functional, cell-based, Homo sapiens; conditions: Homo sapiens, MDA-MB-157
Description: SANGER: Inhibition of human MDA-MB-157 cell growth in a cell viability assay.

YH-13 = type: functional, cell-based, Homo sapiens; conditions: Homo sapiens, YH-13;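 further: cell viability readout of growth suppression in the human YH-13 cell line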
Description: SANGER: Inhibition of human YH-13 cell growth in a cell viability assay.

U-118-MG = type: functional, cell-based, Homo sapiens; conditions: Homo sapiens, U-118-MG
Description: SANGER: Inhibition of human U-118-MG cell growth in a cell viability assay.

DBTRG-05MG = type: functional, cell-based, Homo sapiens; conditions: Homo sapiens, DBTRG-05MG;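 further: cell viability assay measuring growth inhibition of human DBTRG-05MG cells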
Description: SANGER: Inhibition of human DBTRG-05MG cell growth in a cell viability assay.

IGROV-1 = type: functional, cell-based, Homo sapiens; conditions: Homo sapiens, IGROV-1;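 further: reduction of IGROV-1 cell growth, read out with a viability assay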
Description: SANGER: Inhibition of human IGROV-1 cell growth in a cell viability assay.

KYSE-520 cell line = type: functional, cell-based, Homo sapiens; conditions: Homo sapiens, KYSE-520;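 further: growth inhibition of human KYSE-520 cells, read out with a viability assay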
Description: SANGER: Inhibition of human KYSE-520 cell growth in a cell viability assay.

SAOS-2 = type: functional, cell-based, Homo sapiens; conditions: Homo sapiens, SAOS-2;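 further: growth inhibition of human Saos-2 cells determined by a cell viability assay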
Description: SANGER: Inhibition of human Saos-2 cell growth in a cell viability assay.

M14 = type: functional, cell-based, Homo sapiens; conditions: Homo sapiens, M14;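 further: growth inhibition of M14 cells, read out with a cell viability assay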
Description: SANGER: Inhibition of human M14 cell growth in a cell viability assay.

CAL-54 = type: functional, cell-based, Homo sapiens; conditions: Homo sapiens, CAL-54;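 further: growth inhibition of CAL-54 cells, read out by a viability measurement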
Description: SANGER: Inhibition of human CAL-54 cell growth in a cell viability assay.

EGI-1 = type: functional, cell-based, Homo sapiens; conditions: Homo sapiens, EGI-1;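 further: cell viability readout used to gauge growth inhibition of EGI-1 cells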
Description: SANGER: Inhibition of human EGI-1 cell growth in a cell viability assay.

NCI-H2052 = type: functional, cell-based, Homo sapiens; conditions: Homo sapiens, NCI-H2052;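 further: growth inhibition of NCI-H2052 cells, read out with a cell viability assay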
Description: SANGER: Inhibition of human NCI-H2052 cell growth in a cell viability assay.

A2058 = type: functional, cell-based, Homo sapiens; conditions: Homo sapiens, A2058;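 further: reduction of A2058 cell growth, read out with a viability assay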
Description: SANGER: Inhibition of human A2058 cell growth in a cell viability assay.

SK-MEL3 = type: functional, cell-based, Homo sapiens, SK-MEL-3; conditions: Homo sapiens, SK-MEL3;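 further: growth inhibition of human SK-MEL-3 cells, read out with a cell viability assay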
Description: SANGER: Inhibition of human SK-MEL-3 cell growth in a cell viability assay.

COLO-679 = type: functional, cell-based, Homo sapiens; conditions: Homo sapiens, COLO-679
Description: SANGER: Inhibition of human COLO-679 cell growth in a cell viability assay.

NUGC-3 = type: functional, cell-based, Homo sapiens; conditions: Homo sapiens, NUGC-3;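 further: growth inhibition of human NUGC-3 cells, read out with a cell viability assay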
Description: SANGER: Inhibition of human NUGC-3 cell growth in a cell viability assay.

MKN-28 = type: functional, cell-based, Homo sapiens; conditions: Homo sapiens, MKN-28;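 further: cell viability assay read-out, IC50 reflects suppression of growth of human MKN-28 cells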
Description: SANGER: Inhibition of human MKN28 cell growth in a cell viability assay.

IGR-1 = type: functional, cell-based, Homo sapiens; conditions: Homo sapiens, IGR-1;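 further: growth inhibition of human IGR-1 cells, read out with a cell viability assay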
Description: SANGER: Inhibition of human IGR-1 cell growth in a cell viability assay.

PA-1 = type: functional, cell-based, Homo sapiens; conditions: Homo sapiens, PA-1;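 further: IC50 for suppression of PA-1 cell proliferation, determined with a cell viability read-out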
Description: SANGER: Inhibition of human PA-1 cell growth in a cell viability assay.

NCI-H2170 = type: functional, cell-based, Homo sapiens; conditions: Homo sapiens, NCI-H2170;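 further: cell viability assay measuring growth inhibition of human NCI-H2170 cancer cells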
Description: SANGER: Inhibition of human NCI-H2170 cell growth in a cell viability assay.

AU565 = type: functional, cell-based, Homo sapiens; conditions: Homo sapiens, AU565;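 further: cell viability assay measuring growth inhibition of human AU565 cells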
Description: SANGER: Inhibition of human AU565 cell growth in a cell viability assay.

LoVo = type: functional, cell-based, Homo sapiens; conditions: Homo sapiens, LoVo;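 further: growth inhibition of human LoVo cells, read out with a cell viability assay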
Description: SANGER: Inhibition of human LoVo cell growth in a cell viability assay.

RPMI-7951 = type: functional, cell-based, Homo sapiens; conditions: Homo sapiens, RPMI-7951
Description: SANGER: Inhibition of human RPMI-7951 cell growth in a cell viability assay.

KYSE-410 = type: functional, cell-based, Homo sapiens; conditions: Homo sapiens, KYSE-410;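 further: growth inhibition of KYSE-410 cells, measured through a cell viability readout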
Description: SANGER: Inhibition of human KYSE-410 cell growth in a cell viability assay.

DoTc2-4510 = type: functional, cell-based, Homo sapiens; conditions: Homo sapiens, DoTc2-4510
SNU-423 = type: functional, cell-based, Homo sapiens; conditions: Homo sapiens, SNU-423
Description: SANGER: Inhibition of human SNU-423 cell growth in a cell viability assay.

SK-N-AS = type: functional, cell-based, Homo sapiens; conditions: Homo sapiens, SK-N-AS;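 further: growth inhibition of human SK-N-AS cells, measured with a cell viability assay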
Description: SANGER: Inhibition of human SK-N-AS cell growth in a cell viability assay.

HT-1080 = type: functional, cell-based, Homo sapiens; conditions: Homo sapiens, HT-1080
Description: SANGER: Inhibition of human HT-1080 cell growth in a cell viability assay.

A-427 = type: functional, cell-based, Homo sapiens; conditions: Homo sapiens, A-427;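 further: growth inhibition of human A-427 cells, read out by a cell viability assay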
Description: SANGER: Inhibition of human A427 cell growth in a cell viability assay.

LU-99A = type: functional, cell-based, Homo sapiens; conditions: Homo sapiens, LU-99A;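 further: growth inhibition of LU-99A cells, read out with a cell viability assay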
Description: SANGER: Inhibition of human LU-99A cell growth in a cell viability assay.

HCC1569 = type: functional, cell-based, Homo sapiens; conditions: Homo sapiens, HCC1569;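 further: growth inhibition of human HCC1569 cells, read out with a cell viability assay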
Description: SANGER: Inhibition of human HCC1569 cell growth in a cell viability assay.

SW1417 = type: functional, cell-based, Homo sapiens; conditions: Homo sapiens, SW1417;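 further: growth inhibition of human SW1417 cells, read out with a cell viability assay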
Description: SANGER: Inhibition of human SW1417 cell growth in a cell viability assay.

WM-115 = type: functional, cell-based, Homo sapiens; conditions: Homo sapiens, WM-115
Description: SANGER: Inhibition of human WM-115 cell growth in a cell viability assay.

G-361 = type: functional, cell-based, Homo sapiens; conditions: Homo sapiens, G-361

Structure (SMILES)	pIC50 (NCI-H596)	pIC50 (KYSE-510)	pIC50 (Panc1005)	pIC50 (MDA-MB-157)	pIC50 (YH-13)	pIC50 (U-118-MG)	pIC50 (DBTRG-05MG)	pIC50 (IGROV-1)	pIC50 (M14)	pIC50 (CAL-54)	pIC50 (COLO-679)	pIC50 (PA-1)	pIC50 (LoVo)	pIC50 (RPMI-7951)	pIC50 (KYSE-410)	pIC50 (DoTc2-4510)	pIC50 (SNU-423)	pIC50 (HT-1080)	pIC50 (A-427)	pIC50 (WM-115)	other results
COc1cc2c(Nc3ccc(NC(=O)c4ccccc4)cc3)ncnc2cc1OCCCN1CCOCC1	< 5.40	5.44	< 5.40	< 5.40	< 5.40	< 5.40	< 5.40	< 5.40	< 5.40	< 5.40	< 5.40	5.54	< 5.40	< 5.40	< 5.40	< 5.40	< 5.40	< 5.40	< 5.40	< 5.40	pIC50 (NCI-H2030): < 5.40; pIC50 (KYSE-520 cell line): < 5.40; pIC50 (SAOS-2): < 5.40; pIC50 (EGI-1): < 5.40; pIC50 (NCI-H2052): < 5.40; pIC50 (A2058): < 5.40; pIC50 (SK-MEL3): < 5.40; pIC50 (NUGC-3): 5.41; pIC50 (MKN-28): < 5.40; pIC50 (IGR-1): < 5.40; pIC50 (NCI-H2170): < 5.40; pIC50 (AU565): < 5.40; pIC50 (SK-N-AS): < 5.40; pIC50 (LU-99A): < 5.40; pIC50 (HCC1569): < 5.40; pIC50 (SW1417): < 5.40
CC(C)c1ccccc1Cc1cc(C(=O)Nc2ccc(S(=O)(=O)c3ccccc3C(C)(C)C)cc2)c(O)c(O)c1O	5.48	6.65	5.96	6.08	7.15	6.72	5.84	6.34	5.55	6.79	6.63	6.87	6.79	6.05	6.06	5.83	6.49	6.59	7.35	5.92	pIC50 (NCI-H2030): 5.55; pIC50 (KYSE-520 cell line): 5.38; pIC50 (SAOS-2): 6.21; pIC50 (EGI-1): 5.90; pIC50 (NCI-H2052): 5.86; pIC50 (A2058): 6.44; pIC50 (SK-MEL3): 6.16; pIC50 (NUGC-3): 5.94; pIC50 (MKN-28): 5.95; pIC50 (IGR-1): 6.52; pIC50 (G-361): 6.90; pIC50 (NCI-H2170): 6.00; pIC50 (AU565): 6.45; pIC50 (SK-N-AS): 6.74; pIC50 (LU-99A): 6.56; pIC50 (HCC1569): 5.31; pIC50 (SW1417): 5.72
CC(C)CCN1c2nc(Nc3cc(F)c(O)c(F)c3)ncc2N(C)C(=O)C1C (stereo not given)	< 5.30	5.37	< 5.30	5.37	< 5.30	< 5.30	< 5.30	< 5.30	< 5.30	< 5.30	< 5.30	< 5.30	5.83	5.47	< 5.30	< 5.30	< 5.30	< 5.30	5.51	< 5.30	pIC50 (NCI-H2030): < 5.30; pIC50 (KYSE-520 cell line): < 5.30; pIC50 (SAOS-2): < 5.30; pIC50 (EGI-1): < 5.30; pIC50 (NCI-H2052): < 5.30; pIC50 (A2058): < 5.30; pIC50 (SK-MEL3): < 5.30; pIC50 (NUGC-3): < 5.30; pIC50 (MKN-28): < 5.30; pIC50 (IGR-1): 5.39; pIC50 (G-361): 5.67; pIC50 (NCI-H2170): < 5.30; pIC50 (AU565): < 5.30; pIC50 (SK-N-AS): 5.64; pIC50 (LU-99A): < 5.30; pIC50 (HCC1569): < 5.30; pIC50 (SW1417): < 5.30
Nc1cccc2c1CN(C1CCC(=O)NC1=O)C2=O (stereo not given) [LENALIDOMIDE]	< 5.30	< 5.30	< 5.30	< 5.30	< 5.30	< 5.30	< 5.30	< 5.30	< 5.30	< 5.30	< 5.30	< 5.30	< 5.30	< 5.30	< 5.30	< 5.30	< 5.30	< 5.30	< 5.30	< 5.30	pIC50 (NCI-H2030): < 5.30; pIC50 (KYSE-520 cell line): < 5.30; pIC50 (SAOS-2): < 5.30; pIC50 (EGI-1): < 5.30; pIC50 (NCI-H2052): < 5.30; pIC50 (A2058): < 5.30; pIC50 (SK-MEL3): < 5.30; pIC50 (NUGC-3): < 5.30; pIC50 (MKN-28): < 5.30; pIC50 (IGR-1): < 5.30; pIC50 (G-361): < 5.30; pIC50 (NCI-H2170): < 5.30; pIC50 (AU565): < 5.30; pIC50 (SK-N-AS): < 5.30; pIC50 (LU-99A): < 5.30; pIC50 (HCC1569): < 5.30; pIC50 (SW1417): < 5.30
CN(C)C(=N)NC(=N)N [METFORMIN]		< 1.70			< 1.70		2.14	< 1.70	< 1.70	2.47	< 1.70	1.85	< 1.70	2.04	< 1.70	< 1.70	< 1.70	< 1.70	2.14	< 1.70	pIC50 (A2058): < 1.70; pIC50 (MKN-28): < 1.70
CC1(C)CNc2cc(NC(=O)c3cccnc3NCc3ccncc3)ccc21 [MOTESANIB]	< 5.70	< 5.70	< 5.70	< 5.70	< 5.70	< 5.70	< 5.70	< 5.70	< 5.70	< 5.70	< 5.70	< 5.70	< 5.70	< 5.70	< 5.70	< 5.70	< 5.70	< 5.70	< 5.70	< 5.70	pIC50 (NCI-H2030): < 5.70; pIC50 (KYSE-520 cell line): < 5.70; pIC50 (SAOS-2): < 5.70; pIC50 (EGI-1): < 5.70; pIC50 (NCI-H2052): < 5.70; pIC50 (A2058): < 5.70; pIC50 (SK-MEL3): < 5.70; pIC50 (NUGC-3): < 5.70; pIC50 (MKN-28): < 5.70; pIC50 (IGR-1): < 5.70; pIC50 (NCI-H2170): < 5.70; pIC50 (AU565): < 5.70; pIC50 (SK-N-AS): < 5.70; pIC50 (LU-99A): < 5.70; pIC50 (HCC1569): < 5.70; pIC50 (SW1417): < 5.70
CCN(CC)CCCCNc1ncc2cc(-c3cc(OC)cc(OC)c3)c(NC(=O)NC(C)(C)C)nc2n1 [PD-173074]	< 5.70	< 5.70	< 5.70	< 5.70	< 5.70	< 5.70	< 5.70	< 5.70	< 5.70	< 5.70	< 5.70	< 5.70	< 5.70	< 5.70	< 5.70	< 5.70	< 5.70	< 5.70	< 5.70	< 5.70	pIC50 (NCI-H2030): < 5.70; pIC50 (KYSE-520 cell line): < 5.70; pIC50 (SAOS-2): < 5.70; pIC50 (EGI-1): < 5.70; pIC50 (NCI-H2052): < 5.70; pIC50 (A2058): < 5.70; pIC50 (SK-MEL3): < 5.70; pIC50 (NUGC-3): < 5.70; pIC50 (MKN-28): < 5.70; pIC50 (IGR-1): < 5.70; pIC50 (NCI-H2170): < 5.70; pIC50 (AU565): < 5.70; pIC50 (SK-N-AS): < 5.70; pIC50 (LU-99A): < 5.70; pIC50 (HCC1569): < 5.70; pIC50 (SW1417): < 5.70
Cn1cnc2c(F)c(Nc3ccc(Br)cc3Cl)c(C(=O)NOCCO)cc21 [SELUMETINIB]	< 5.40	< 5.40	< 5.40	< 5.40	< 5.40	< 5.40	< 5.40	< 5.40	7.43	5.83	6.47	< 5.40	5.97	< 5.40	< 5.40	< 5.40	< 5.40	5.61	< 5.40	6.57	pIC50 (KYSE-520 cell line): < 5.40; pIC50 (SAOS-2): < 5.40; pIC50 (EGI-1): 5.74; pIC50 (NCI-H2052): < 5.40; pIC50 (SK-MEL3): 5.71; pIC50 (NUGC-3): 5.92; pIC50 (IGR-1): < 5.40; pIC50 (NCI-H2170): < 5.40; pIC50 (AU565): < 5.40; pIC50 (SK-N-AS): 7.03; pIC50 (LU-99A): < 5.40; pIC50 (HCC1569): < 5.40; pIC50 (SW1417): < 5.40
